Measurements taken from patent US11466016B2, “Pharmaceutical compounds” (priority 2018, dated 2022).
Counter-ions that a name gives are not always drawn.

Molecular target: SHP2 (Homo sapiens (Human), UniProt Q06124)
Experiment: SHP2 Biochemical Assay (DiFMUP conversion, pIRS1 activating peptide)
Settings: not given
Description: SHP2 activity was monitored by measuring the conversion of the surrogate substrate 6,8-difluoromethylumbelliferyl phosphate (DiFMUP) to the fluorescent product, 6,8-difluoromethylumbelliferone (DiFMU).
SHP2 was pre-incubated with test compounds and the activating peptide pIRS1 (H2N-LN(pY)IDLDLV-(PEG)8-LST(pY)ASINFQK-amide) for 30 min, prior to addition of the […] (DiFMUP), (Thermo Fisher D6567). […] Rates of reaction were then measured over 30 min by monitoring fluorescence on a BMG Pherastar reader at excitation 360 nm/emission 450 nm. IC50 values were calculated from the normalized dose-response plots using four parameter logistic curve fit.

SHP2, sequence (Q06124 whole entry): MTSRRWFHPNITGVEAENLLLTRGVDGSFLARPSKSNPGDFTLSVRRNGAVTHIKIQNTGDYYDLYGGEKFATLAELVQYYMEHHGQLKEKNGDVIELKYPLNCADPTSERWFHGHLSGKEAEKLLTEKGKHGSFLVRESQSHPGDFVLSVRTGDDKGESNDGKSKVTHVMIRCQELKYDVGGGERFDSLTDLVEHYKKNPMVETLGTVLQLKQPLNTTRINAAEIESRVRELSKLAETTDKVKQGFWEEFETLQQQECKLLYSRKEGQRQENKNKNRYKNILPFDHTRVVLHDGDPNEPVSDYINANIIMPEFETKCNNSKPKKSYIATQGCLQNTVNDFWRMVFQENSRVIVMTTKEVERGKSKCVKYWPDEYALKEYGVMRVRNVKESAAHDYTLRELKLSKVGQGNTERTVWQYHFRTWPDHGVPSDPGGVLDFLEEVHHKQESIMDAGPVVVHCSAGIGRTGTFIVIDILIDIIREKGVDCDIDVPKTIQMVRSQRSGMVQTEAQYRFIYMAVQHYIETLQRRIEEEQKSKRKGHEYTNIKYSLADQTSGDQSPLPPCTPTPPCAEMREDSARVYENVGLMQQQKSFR

| SMILES | IC50 [µM] |
| --- | --- |
| N[C@H]1C[C@H]2CC[C@@H](C1)N2c1cnc2c(-c3ccc4nc(C5CCOC5)sc4c3Cl)c[nH]c2n1 (stereo partly drawn) [Example 39, endo-8-{7-[7-chloro-2-(oxolan-3-yl)-1,3-benzothiazol-6-yl]-5H-pyrrolo[2,3-b]pyrazin-3-yl}-8-azabicyclo[3.2.1]octan-3-amine, dihydrochloride salt] | 0.0069 |
| Cc1nc2ccc(-c3c[nH]c4nc(N5[C@@H]6CC[C@H]5C[C@@H](N)C6)cnc34)c(Cl)c2c(=O)n1C [Example 52, 6-{3-[endo-3-amino-8-azabicyclo[3.2.1]octan-8-yl]-5H-pyrrolo[2,3-b]pyrazin-7-yl}-5-chloro-2,3-dimethyl-3,4-dihydroquinazolin-4-one, methanesulfonic acid salt] | 0.013 |

Same assay, conditions: DiFMUP substrate, 0.25 μM pIRS1 peptide, 30 min pre-incubation; average where more than one data point; read-out: SHP2 (IC50)

| SMILES | IC50 [µM] |
| --- | --- |
| Cc1nc2c(-c3ccc4nn(C)cc4c3Cl)n[nH]c2nc1N1[C@@H]2CC[C@H]1C[C@H](N)C2 [Example 40, exo-8-[3-(4-chloro-2-methyl-2H-indazol-5-yl)-5-methyl-1H-pyrazolo[3,4-b]pyrazin-6-yl]-8-azabicyclo[3.2.1]octan-3-amine, dihydrochloride salt] | 0.01 |
| Cn1nc2ccc(-c3c[nH]c4nc(N5[C@@H]6CC[C@H]5C[C@H](N)C6)cnc34)c(Cl)c2c1Cl [Example 41, exo-8-[7-(3,4-dichloro-2-methyl-2H-indazol-5-yl)-5H-pyrrolo[2,3-b]pyrazin-3-yl]-8-azabicyclo[3.2.1]octan-3-amine, hydrochloride salt] | 0.0036 |
| COCc1nc2ccc(-c3c[nH]c4nc(N5[C@@H]6CC[C@H]5C[C@@H](N)C6)cnc34)c(Cl)c2s1 [Example 43, endo-8-{7-[7-chloro-2-(methoxymethyl)-1,3-benzothiazol-6-yl]-5H-pyrrolo[2,3-b]pyrazin-3-yl}-8-azabicyclo[3.2.1]octan-3-amine, hydrochloride salt] | 0.0058 |
| N[C@H]1C[C@H]2CC[C@@H](C1)N2c1cnc2c(-c3ccc4nc(CO)sc4c3Cl)c[nH]c2n1 [Example 44, (6-{3-[endo-3-amino-8-azabicyclo[3.2.1]octan-8-yl]-5H-pyrrolo[2,3-b]pyrazin-7-yl}-7-chloro-1,3-benzothiazol-2-yl)methanol, hydrochloride salt] | 0.0068 |
| Cc1nc2c(-c3ccc4nn(C)cc4c3Cl)[nH]nc2nc1N1[C@@H]2CC[C@H]1CC(N)C2 (stereo partly drawn) [Example 48, endo-8-[3-(4-Chloro-2-methyl-2H-indazol-5-yl)-5-methyl-1H-pyrazolo[3,4-b]pyrazin-6-yl]-8-azabicyclo[3.2.1]octan-3-amine, hydrochloride salt] | 0.017 |
| CN(C)C(=O)Cn1cc2c(Cl)c(-c3c[nH]c4nc(N5[C@@H]6CC[C@H]5C[C@@H](N)C6)cnc34)ccc2n1 [Example 49, 2-(5-{3-[endo-3-amino-8-azabicyclo[3.2.1]octan-8-yl]-5H-pyrrolo[2,3-b]pyrazin-7-yl}-4-chloro-2H-indazol-2-yl)-N,N-dimethylacetamide] | 0.015 |
| Cn1cc2c(Cl)c(-c3c[nH]c4nc(N5[C@@H]6CC[C@H]5C[C@@H](N)C6)cnc34)cc(F)c2n1 [Example 50, endo-8-[7-(4-chloro-7-fluoro-2-methyl-2H-indazol-5-yl)-5H-pyrrolo[2,3-b]pyrazin-3-yl]-8-azabicyclo[3.2.1]octan-3-amine] | 0.031 |
| Cn1nc2ccc(-c3c[nH]c4nc(N5[C@@H]6CC[C@H]5C[C@@H](N)C6)cnc34)c(Cl)c2n1 [Example 51, endo-8-[7-(4-chloro-2-methyl-2H-1,2,3-benzotriazol-5-yl)-5H-pyrrolo[2,3-b]pyrazin-3-yl]-8-azabicyclo[3.2.1]octan-3-amine] | 0.029 |
| CC(C)(O)Cn1cc2c(Cl)c(-c3c[nH]c4nc(N5[C@@H]6CC[C@H]5C[C@@H](N)C6)cnc34)ccc2n1 [Example 53, 1-(5-{3-[endo-3-amino-8-azabicyclo[3.2.1]octan-8-yl]-5H-pyrrolo[2,3-b]pyrazin-7-yl}-4-chloro-2H-indazol-2-yl)-2-methylpropan-2-ol] | 0.029 |
| N[C@H]1C[C@H]2CC[C@@H](C1)N2c1cnc2c(-c3ccc4[nH]nc(Cl)c4c3Cl)c[nH]c2n1 [Example 54, endo-8-[7-(3,4-dichloro-1H-indazol-5-yl)-5H-pyrrolo[2,3-b]pyrazin-3-yl]-8-azabicyclo[3.2.1]octan-3-amine] | 0.01 |
| Cc1cc(-c2c[nH]c3nc(N4[C@@H]5CC[C@H]4C[C@@H](N)C5)cnc23)c(Cl)c2cn(C)nc12 [Example 55, endo-8-[7-(4-chloro-2,7-dimethyl-2H-indazol-5-yl)-5H-pyrrolo[2,3-b]pyrazin-3-yl]-8-azabicyclo[3.2.1]octan-3-amine] | 0.022 |
| Cn1cnc2ccc(-c3c[nH]c4nc(N5[C@@H]6CC[C@H]5C[C@@H](N)C6)cnc34)c(Cl)c2c1=O [Example 56, 6-{3-[endo-3-amino-8-azabicyclo[3.2.1]octan-8-yl]-5H-pyrrolo[2,3-b]pyrazin-7-yl}-5-chloro-3-methyl-3,4-dihydroquinazolin-4-one, hydrochloride salt] | 0.021 |
| CNC(=O)Cn1cc2c(Cl)c(-c3c[nH]c4nc(N5[C@@H]6CC[C@H]5C[C@@H](N)C6)cnc34)ccc2n1 [Example 57, 2-(5-{3-[endo-3-amino-8-azabicyclo[3.2.1]octan-8-yl]-5H-pyrrolo[2,3-b]pyrazin-7-yl}-4-chloro-2H-indazol-2-yl)-N-methylacetamide] | 0.023 |
| CN(C)C(=O)c1nc2ccc(-c3c[nH]c4nc(N5[C@@H]6CC[C@H]5C[C@@H](N)C6)cnc34)c(Cl)c2s1 [Example 59, 6-{3-[endo-3-amino-8-azabicyclo[3.2.1]octan-8-yl]-5H-pyrrolo[2,3-b]pyrazin-7-yl}-7-chloro-N,N-dimethyl-1,3-benzothiazole-2-carboxamide, hydrochloride salt] | 0.018 |
| CC(C)(C)NC(=O)Cn1cc2c(Cl)c(-c3c[nH]c4nc(N5[C@@H]6CC[C@H]5C[C@@H](N)C6)cnc34)ccc2n1 [Example 60, 2-(5-{3-[endo-3-amino-8-azabicyclo[3.2.1]octan-8-yl]-5H-pyrrolo[2,3-b]pyrazin-7-yl}-4-chloro-2H-indazol-2-yl)-N-tert-butylacetamide] | 0.012 |
| Cn1nc2ccc(-c3c[nH]c4nc(N5[C@@H]6CC[C@H]5C[C@@H](N)C6)cnc34)c(Cl)c2c1CC#N [Example 61, 2-(5-{3-[endo-3-amino-8-azabicyclo[3.2.1]octan-8-yl]-5H-pyrrolo[2,3-b]pyrazin-7-yl}-4-chloro-2-methyl-2H-indazol-3-yl)acetonitrile] | 0.13 |
| Cn1nc2ccc(-c3c[nH]c4nc(N5[C@@H]6CC[C@H]5C[C@@H](N)C6)cnc34)c(Cl)c2c1C#N [Example 62, 5-{3-[endo-3-amino-8-azabicyclo[3.2.1]octan-8-yl]-5H-pyrrolo[2,3-b]pyrazin-7-yl}-4-chloro-2-methyl-2H-indazole-3-carbonitrile] | 0.0071 |
| Cn1cc2c(Cl)c(-c3c[nH]c4nc(N5[C@H]6CC[C@@H]5[C@@H](F)[C@@H](N)C6)cnc34)ccc2n1 [Example 64, (1R,2S,3S,5S)-8-[7-(4-chloro-2-methyl-2H-indazol-5-yl)-5H-pyrrolo[2,3-b]pyrazin-3-yl]-2-fluoro-8-azabicyclo[3.2.1]octan-3-amine] | 0.0077 |
